In patent US4517007A, “Phosphoroamide urease inhibitors and urease inhibited urea based fertilizer compositions” (Allied Corporation, priority 1983, dated 1985):

What follows are compounds tested on urease (assay: Urease Inhibition Efficacy Test in soil (urea remaining after incubation)). Details: 800 micrograms test compound and 42.8 mg urea on 20 g air-dry Cazenovia silt loam, pH 7.0; incubated at 25° C. for three days; run in triplicate.
Format: biochemical
Procedure: Efficacy tests were conducted to evaluate the efficacy of representative compounds as urease inhibitors. The inhibition tests were run in a New York soil (Cazenovia silt loam, pH 7.0). Evaluations (run in triplicate) consisted of applying 800 micrograms of the test compound in 5 mL of water and 42.8 mg of urea in 1 mL of water to 20 g of air-dry soil in a glass bottle. The bottle was capped with perforated aluminum foil and incubated at 25° C. for three days prior to extraction with 100 mL of a 2M KCl solution containing 0.5 mg of phenylmercuric acetate. The extracts were then analyzed for remaining urea using an autoanalyzer. Percent inhibition was calculated as [formula] where A is urea recovered from an unincubated sample (urea added to soil and immediately extracted); B is urea recovered from an inhibited sample; and C is urea recovered from the control (uninhibited sample).

Question: With `NP(N)(=O)Oc1cccc2c1OP(N)(=O)O2` (stereo not drawn) [Experiment 2] as the compound, how does the “% Inhibition 40 micrograms per gram Cazenovia soil” value read?
Answer: The value was 5%.

Question: Which “% Inhibition 40 micrograms per gram Cazenovia soil” value does the source give for `NP(N)(=O)Oc1ccc2c(c1)OP(N)(=O)O2` (stereo not drawn) [Experiment 3] here?
Answer: Its value is 21%.

Question: For `NP1(=O)Oc2ccccc2O1` [Experiment 1], which “% Inhibition 40 micrograms per gram Cazenovia soil” value is on record?
Answer: The value was 54%.
